Usually IC50 stands for the point on the concentration scale where inhibition reaches its midpoint. Read a high IC50 as lower potency.

Results on 41 molecules are retold here after patent US20230172940A1, “METHODS OF EXTENDING LIFESPAN BY ADMINISTERING FERROPTOSIS INHIBITORS” (COLLABORATIVE MEDICINAL DEVELOPMENT, LLC, priority 2020, published 2023).

The test deals with RSL3. The test can be described thus: IC50 (RSL3), Table 1. The class given is cell-based.

Read-outs that look alike come from different tables or passages of the source.

`CC1(Nc2nc(-c3ccc(F)cc3)ccc2NC2CCC2)CCOC1` (centres unmarked) [Compound P-54, N^3-cyclobutyl-6-(4-fluorophenyl)-N^2-(3-methyltetrahydrofuran-3-yl)pyridine-2,3-diamine]: it took 3 nM to reach half-maximal inhibition (IC50). Molecule `CCC(C)Nc1ccc(-c2ccncc2)nc1NC1CCCC1` (centres unmarked) [Compound H-76, N^2-cyclopentyl-6-(4-pyridyl)-N^3-sec-butyl-pyridine-2,3-diamine] had a half-inhibitory concentration (IC50) of 6 nM. The molecule `CC(C)(C)Nc1ccc(-c2ccncc2)nc1NC1CCCC1` [Compound L-04, N^3-tert-butyl-N^2-cyclopentyl-6-(4-pyridyl)pyridine-2,3-diamine] gave an IC50 of 5 nM. Same read-out and setting: the result for `CCOC(=O)c1cc(N)c2c(c1)OCCN2` [Compound H-85] reads greater than 1000 nM. `CCC(C)Nc1ccc(-c2ccc(C)cc2)nc1NC1CCCC1` (centres unmarked) [Compound H-61, N^2-cyclopentyl-6-(p-tolyl)-N^3-sec-butyl-pyridine-2,3-diamine] came in with an IC50 of 7 nM.

As to `CC1=Nc2cc(C#N)ccc2NC1(C)C` [Compound Q-912, 2,2,3-trimethyl-1H-quinoxaline-6-carbonitrile], the IC50 was greater than 3000 nM. As for `CCC/C=C/c1nc(NC2CCCC2)c2c(n1)SCC(=O)N2` [Compound B-600, 4-(cyclopentylamino)-2-[(1E)-pent-1-en-1-yl]-5H,6H,7H-pyrimido[4,5-b][1,4]thiazin-6-one], the IC50 was no less than 3000 nM.

In turn, `CCCCC(=O)c1nc2c(c(Nc3ccccn3)n1)NCCC2` [Compound G-65, 1-[4-(2-pyridylamino)-5,6,7,8-tetrahydropyrido[3,2-d]pyrimidin-2-yl]pentan-1-one] showed an IC50 (unit cell prints uM) greater than 10000 nM.

`CCC/C=C/c1nc(NC2CCOC2)c2c(n1)OCC(=O)N2` (centres unmarked) [Compound B-603, 4-[(oxolan-3-yl)amino]-2-[(1E)-pent-1-en-1-yl]-5H,6H,7H-pyrimido[4,5-b][1,4]oxazin-6-one]: the IC50 was greater than 3000 nM. The molecule `CCCCC(=O)c1cc2c(c(OC3CCCC3)c1)NCCC2` [Compound Q-980, 1-[8-(cyclopentoxy)-1,2,3,4-tetrahydroquinolin-6-yl]pentan-1-one] displayed an IC50 greater than 3000 nM. Same read-out and setting: as for `CCC(C)Nc1ccc(-c2cncnc2)nc1NC1CCCC1` (centres unmarked) [Compound H-80, N^2-cyclopentyl-6-pyrimidin-5-yl-N^3-sec-butyl-pyridine-2,3-diamine], the figure is 7 nM; as for `CCCCC(=O)c1cc2c(c(-n3ccnc3)c1)NCCC2` [Compound B-006, 1-(8-imidazol-1-yl-1,2,3,4-tetrahydroquinolin-6-yl)pentan-1-one], greater than 3000 nM; as for `CCCCC(=O)c1cc2c(c(N(S(=O)(=O)CC(C)C)S(=O)(=O)CC(C)C)c1)NCCC2` [Compound B-248, N-isobutylsulfonyl-2-methyl-N-(6-pentanoyl-1,2,3,4-tetrahydroquinolin-8-yl)propane-1-sulfonamide], greater than 3000 nM. The same measure, in the same setting: as for `Cc1ccc(-c2ccc(NC3COC3)c(NC3CCCC3)n2)cc1` [Compound H-81, N^2-cyclopentyl-N^3-(oxetan-3-yl)-6-(p-tolyl)pyridine-2,3-diamine], the figure is 5 nM; as for `c1ncc(-c2ncc(NC3COC3)c(NC3CCCC3)n2)cn1` [Compound F-82, N^4-cyclopentyl-N^5-(oxetan-3-yl)-2-pyrimidin-5-yl-pyrimidine-4,5-diamine], greater than 625 nM; as for `CCCCC(=O)c1cc2c(c(-c3ccncc3)c1)NCCC2` [Compound Q-950, 1-[8-(4-pyridyI)-1,2,3,4-tetrahydroquinolin-6-yl]pentan-1-one], greater than 3000 nM. The molecule `CCC(C)Nc1ccc(-c2ccc(OC)cc2)nc1NC1CCCC1` (centres unmarked) [Compound H-86, N^2-cyclopentyl-6-(4-methoxyphenyl)-N^3-sec-butyl-pyridine-2,3-diamine] came in with an IC50 of 8 nM. Regarding `Cc1ccc(-c2ccc(NC(C)(C)C)c(NC3CCCC3)n2)cc1` [Compound A-98, N^3-tert-butyl-N^2-cyclopentyl-6-(p-tolyl)pyridine-2,3-diamine], the IC50 came to 7 nM. This IC50 and that of the molecule before are within 1.5-fold of each other. Molecule `CCC(C)Nc1ccc(-c2ccc(C)cc2)nc1NC(C)(C)C` [Compound L-02, N^2-tert-butyl-6-(p-tolyl)-N^3-sec-butyl-pyridine-2,3-diamine] came in with an IC50 of 5 nM. For the molecule `CCCCCc1ccc(NC(C)CC)c(NC2CCCC2)n1` (centres unmarked) [Compound H-72, N^2-cyclopentyl-6-pentyl-N^3-sec-butyl-pyridine-2,3-diamine], the IC50 worked out at 6 nM.

The molecule `CCCCCc1nc(NC2CCCC2)c2c(n1)S(=O)(=O)CCN2` [Compound B-602, N-cyclopentyl-8,8-dioxo-2-pentyl-6,7-dihydro-5H-pyrimido[4,5-b][1,4]thiazin-4-amine] registered an IC50 of no less than 3000 nM. `CCC/C=C/c1nc2c(c(NC3CCCC3)n1)NCCC2` [Compound B-388, N-cyclopentyl-2-[(E)-pent-1-enyl]-5,6,7,8-tetrahydropyrido [3,2-d]pyrimidin-4-amine] came in with an IC50 of 40 nM. The same measure, in the same setting: the result for `CC1(Nc2nc(-c3ccc(F)cc3)ccc2NC2CCOCC2)CCOC1` (centres unmarked) [Compound N-53, 6-(4-fluorophenyl)-N^2-(3-methyltetrahydrofuran-3-yl)-N^3-tetrahydropyran-4-yl-pyridine-2,3-diamine] reads 1 nM. The molecule `CON(C)C(=O)c1ccc2c(c1)C=CC(C)(C)N2` [Compound B-065] gave an IC50 greater than 3000 nM.

On to `CCCCC(O)c1nc2c(c(Nc3ccccn3)n1)NCCC2` (centres unmarked) [Compound G-63, 1-[4-(2-pyridylamino)-5,6,7,8-tetrahydropyrido[3,2-d]pyrimidin-2-yl]pentan-1-ol], for which, where the note is “unit cell prints uM”, the IC50 is greater than 10000 nM. In the case of `CCCCC(=O)c1cc2c3c(c1)nc(C(F)(F)F)n3CCC2` [Compound B-099, 1-[2-(trifluoromethyl)-1,3-diazatricyclo[6.3.1.04,12]dodeca-2,4(12),5,7-tetraen-6-yl]pentan-1-one], the half-inhibitory concentration (IC50) was greater than 3000 nM. `CCCCCc1nc2c(c(NC3CCCC3)n1)NC(C)(C)CC2` [Compound B-917, N-cyclopentyl-6,6-dimethyl-2-pentyl-5H,6H,7H,8H-pyrido[3,2-d]pyrimidin-4-amine] came in with a concentration for half-maximal inhibition (IC50) greater than 3000 nM.

The molecule `COc1ccc(-c2ccc(NC3COC3)c(NC3CCCC3)n2)cc1` [Compound H-87, N^2-cyclopentyl-6-(4-methoxyphenyl)-N^3-(oxetan-3-yl)pyridine-2,3-diamine] yielded an IC50 of 3 nM. This lies in the single-digit nanomolar range. For the molecule `CCCCC(=O)c1cc2c(c(NC3CCCC3)c1)OCCC2` [Compound B-035, 1-[8-(cyclopentylamino)-3,4-dihydro-2H-1-benzopyran-6-yl]pentan-1-one], the IC50 is greater than 3000 nM. The molecule `CCCCC(=O)c1cc(F)c2c(c1)CCCN2` [Compound B-132] yielded an IC50 greater than 3000 nM.

In turn, `CCCCC(O)c1cc2c(c(NC(C)(C)C)n1)NCC(C(F)(F)F)C2` (centres unmarked) [Compound R-812, 1-[8-(tert-butylamino)-3-(trifluoromethyl)-1,2,3,4-tetrahydro-1,7-naphthyridin-6-yl]pentan-1-ol] came in with a concentration for half-maximal inhibition (IC50) of 40 nM. In other words, the double-digit nanomolar range. In turn, `CCC(C)Nc1ccc(-c2cccnc2)nc1NC1CCCC1` (centres unmarked) [Compound H-74, N^2-cyclopentyl-6-(3-pyridyl)-N^3-sec-butyl-pyridine-2,3-diamine] had an IC50 of 5 nM. In turn, `CCCCCc1nc(NC2CCCC2)c2c(n1)SCCN2` [Compound B-601, N-cyclopentyl-2-pentyl-5H,6H,7H-pyrimido[4,5-b][1,4]thiazin-4-amine] registered a half-inhibitory concentration (IC50) of 3 nM. Against the preceding molecule, the IC50 is about 1.7-fold lower. In the case of `CCC(C)Nc1ccc(-c2ccncc2)nc1NC(C)(C)C` (centres unmarked) [Compound P-22], the IC50 was 1 nM. Molecule `CCCCC(=O)c1cc2c(c(NC3CCCC3)n1)NCCC2` [Compound B-647, 1-[8-(cyclopentylamino)-1,2,3,4-tetrahydro-1,7-naphthyridin-6-yl]pentan-1-one] had an IC50 of 8 nM. Molecule `CNC(=O)c1nc(-c2ccc(C)cc2)nc2c1NC(C)(C)N2C1CCCC1` [Compound K-34, 9-cyclopentyl-N,8,8-trimethyl-2-(p-tolyI)-5,7-dihydro-4H-purine-6-carboxamide] came in with an IC50 (unit cell prints uM) greater than 10000 nM.

The molecule `Cc1ccc(-c2nc3c(c(NC4CCCC4)n2)NCCC3)cc1` [Compound A-32, N-cyclopentyl-2-(p-tolyl)-5,6,7,8-tetrahydropyrido[3,2-d]pyrimidin-4-amine] came in with an IC50 of 6 nM. Turning to `CCCCCc1nc(NC2CCCC2)c2c(n1)OCCN2` [Compound B-711, N-cyclopentyl-2-pentyl-5H,6H,7H-pyrimido[4,5-b][1,4]oxazin-4-amine], the IC50 came out at 41 nM. `CC(C)=Cc1nc(C)nc(NC2CCCC2)c1N` [Compound F-99, N^4-cyclopentyl-2-methyl-6-(2-methylprop-1-enyl)pyrimidine-4,5-diamine] registered an IC50 greater than 625 nM. `CCCCC(OC)c1cc2c(c(Nc3ccccn3)c1)NCCC2` (centres unmarked) [Compound B-397, 6-(1-methoxypentyI)-N-(2-pyridyl)-1,2,3,4-tetrahydroquinolin-8-amine] gave an IC50 of 70 nM. `CCOC(=O)c1cc2c(c(C(=O)C(F)(F)F)c1)NC(C)(C)C=C2` [Compound B-101, Ethyl 2,2-dimethyl-8-(2,2,2-trifluoroacetyl)-1,2-dihydroquinoline-6-carboxylate] registered a concentration for half-maximal inhibition (IC50) greater than 3000 nM.
